Reference: patent publication US20120035187A1 (priority 2009, published 2012)
Read-outs that look alike come from different tables or passages of the source. Marks after values point to notes of the source that are not given here.

Experiments:
PC12-HS cells [1] = type: cell-based, rat
PI3K-Akt cascade = assay: Actions of NK-4 on PC12-HS cells in presence of K252a or LY294002; type: cell-based, rat; settings: concrete data omitted
[2] = system: hamsters with cerebellar ataxia; assay: Concentration of glutamic acid in cerebrospinal fluid (CSF); type: in vivo, hamster; settings: 10-weeks of age
Source text: Since NK-4 was confirmed to have a neurodegenerative inhibitory action in Experiment 1, hamsters with cerebellar ataxia (cerebellar ataxia is called “cerebellar A” and hamsters with cerebellar ataxia are called “hamsters with cerebellar A”, hereinafter) as a suitable model for human neurodegenerative diseases (e.g., spinal cerebellar degeneration) were subjected to examine the influence of NK-4 administration on their behaviors and brain tissues. Twenty-five hamsters with natural mutation (Nna1 inhibition), which are known to lose Purkinje's cells after three-weeks of age and then induce a spontaneous onset of kinetic motor ataxia after seven-weeks of age (see Akita K. et al., “J. Neurogenetics”, Vol. 21, pp. 19-29, 2007), had been fed at Hayashibara Biochemical Laboratories., Inc., Okayama, Japan, were randomly allocated to the test groups 1 to 5, five heads in each group, as shown in Table 2. Prior to the onset of cerebellar A (at three-weeks of age), PBS was started to administer to the hamsters in the test group 1 at a dose of 10 ml/kg/day. Prior to the onset of cerebellar A (at three-weeks of age), NK-4 was started to be administered to the hamsters in the test groups 2 to 4 at a daily dose of 20 μg/kg, 100 μg/kg or 500 μg/kg. “IGF-1, human, a product name of insulin-like growth factor, commercialized by Assaypro LLC, MO, USA. These administered ingredients were intraperitoneally administered daily to hamsters once a day up to 10-weeks of age. The degree of symptom of cerebellar A and the improvement effect on the symptom by NK-4 were evaluated with an index of improvement in motor coordination of hamsters by conducting once a week the later described rotarod test and the slant tolerance test. At the age of 10-weeks, the hamsters were subjected to counting the falling down frequency and extracted their brains, which were then histologically evaluated. In parallel, the concentration of glutamic acid in the bloods and cerebrospinal fluids (CSF) of the hamsters was assayed. As a test group 6, five normal hamsters, with the same age as the hamsters with cerebellar A used in the test groups 1 to 5, were provided and tested similarly as the hamsters with cerebellar A in such a manner of intraperitoneally administering PBS to them at a dose of 10 ml/kg/day once a day up to 10-weeks of age.
The content of glutamic acid, which is used for synthesizing gamma-amino butyric acid (GABA) as a main excitatory neurotransmitter and inhibitory neurotransmitter that regulate higher-order functions such as memory/learning in mammalian central nervous system, was assayed. In harvesting the brains from the above hamsters, they were blooded from their postcavas, followed by collecting CSF for use in the later described assay for glutamic acid concentration. […]

[3] = molecular target: T1, acetylcholine esterase (AchE) (Rattus norvegicus, UniProt P37136); assay: biochemical; type: biochemical; settings: for action of inhibiting AchE activity (in words): Experiment 14, comparison of NK-4 analogues and NK-150
T1 sequence (P37136 32-614): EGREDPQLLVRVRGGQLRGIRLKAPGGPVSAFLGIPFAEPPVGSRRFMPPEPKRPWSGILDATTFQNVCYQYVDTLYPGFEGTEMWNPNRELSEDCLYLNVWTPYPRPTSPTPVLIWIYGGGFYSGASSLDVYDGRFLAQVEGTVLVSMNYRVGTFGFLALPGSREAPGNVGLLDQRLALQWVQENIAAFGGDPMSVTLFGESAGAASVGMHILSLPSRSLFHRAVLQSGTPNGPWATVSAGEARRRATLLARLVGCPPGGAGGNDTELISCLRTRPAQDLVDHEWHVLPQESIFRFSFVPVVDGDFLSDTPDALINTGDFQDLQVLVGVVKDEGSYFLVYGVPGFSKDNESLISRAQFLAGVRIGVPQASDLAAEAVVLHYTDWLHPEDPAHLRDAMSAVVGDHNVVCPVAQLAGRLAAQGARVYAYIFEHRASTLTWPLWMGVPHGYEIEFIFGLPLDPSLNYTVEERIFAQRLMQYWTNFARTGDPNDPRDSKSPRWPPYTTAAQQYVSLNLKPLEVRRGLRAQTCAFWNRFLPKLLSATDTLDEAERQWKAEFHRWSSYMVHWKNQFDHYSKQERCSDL

APP Tg mouse [4] = assay: Passive avoidance test, APP transgenic mouse; type: in vivo; settings: for Passive avoidance reaction: intraperitoneal, five times a week for 12 weeks
PC12-HS cells [5] = system: PC12-HS cells
Method: The cells were cultured with a serum-free medium as a nutrition-starvation-condition. PC12-HS cells were subjected to tests after stock cultured cells thereof were thawed and cultured with a D-MEM medium supplemented with 10% by volume of fetal bovine serum (FBS). […] As a control, cells were cultured with a NK-4 free D-MEM medium and, similarly as above, cultured after the addition of an ALAMAR BLUE solution commercialized by Trek Diagnostic Systems Inc., Ohio, USA, and measured for fluorescent intensity for each well. Relative values for cells in each well were determined when the fluorescent intensity for control was regarded as 100%, and the data are also shown in Table 1 as survival percentages (%) of cells in each well.

APP Tg mouse [6] = assay: Novelty object recognition test, APP transgenic mouse; settings: for Index for object discrimination: intraperitoneal, five times a week for 12 weeks
[7] = concentration of compound 0.78 μg/ml
[8] = concentration of compound 1.56 μg/ml
[9] = concentration of compound 3.13 μg/ml
[10] = concentration of compound 6.25 μg/ml
[11] = concentration of compound 12.5 μg/ml
[12] = concentration of compound 25 μg/ml
[13] = concentration of compound 50 μg/ml
[14] = concentration that suppresses AchE activity by 50%, calculated from residual ratios
[15] = i.p. five times a week for 12 weeks
[16] = compound concentration 0.78 μg/ml, read-out: Residual ratio of AchE activity (%)
[17] = compound concentration 1.56 μg/ml, read-out: Residual ratio of AchE activity (%)
[18] = compound concentration 3.13 μg/ml, read-out: Residual ratio of AchE activity (%)
[19] = compound concentration 6.25 μg/ml, read-out: Residual ratio of AchE activity (%)
[20] = compound concentration 12.5 μg/ml, read-out: Residual ratio of AchE activity (%)
[21] = compound concentration 25 μg/ml, read-out: Residual ratio of AchE activity (%)

## CCN1C=CC(=CC=C(C=Cc2cc[n+](CC)c3ccccc23)c2cc[n+](CC)c3ccccc23)c2ccccc21.[I-].[I-] [NK-4]
PC12-HS cells [1]; NK-4 50 ng/ml
  Survibal percentage of cells when admixed with cytotoxic factor (%) Hydrogen peroxide: 50%
PC12-HS cells [1]; NK-4 500 ng/ml
  Survibal percentage of cells when admixed with cytotoxic factor (%) Hydrogen peroxide: 50%
PC12-HS cells [1]; NK-4 5000 ng/ml
  Survibal percentage of cells when admixed with cytotoxic factor (%) Hydrogen peroxide: 70 ** %
PC12-HS cells [1]; NK-4 50000 ng/ml
  Survibal percentage of cells when admixed with cytotoxic factor (%) Hydrogen peroxide: 90 ** %
PC12-HS cells [1]; PC12-HS cells
  concentration required for protection action against hydrogen peroxide injury: 5,000 ng/ml
PC12-HS cells [1]; PC12-HS cells, 200 μM hydrogen peroxide, 2 hours, NK-4 5 ng/ml
  Survibal percentage of cells when admixed with cytotoxic factor (%) Hydrogen peroxide: 51%
PI3K-Akt cascade; K252a, protein kinase inhibitor specific to TrkA
  inhibition by K252a of the actions of NK-4 on PC12-HS cell growth promotion and neurite outgrowth: did not inhibit
PI3K-Akt cascade; LY294002, PI3K inhibitor
  inhibition by LY294002 of the action of NK-4: is inhibited by LY294002
[2]; 20 μg/kg body weight
  Concentration of glutamic acid in cerebrospinal fluid: 7.2 ± 0.8 µM
[2]; 100 μg/kg body weight
  Concentration of glutamic acid in cerebrospinal fluid: 8.7 ± 2.6 µM
[2]; 500 μg/kg body weight
  Concentration of glutamic acid in cerebrospinal fluid: 9.5 ± 2.9 µM
[3]; AchE solution from PC12-HS cells
  IC50 (concentration of a compound inhibiting the AchE activity of 50%): 3.3 µg/mL
[3]
  action of inhibiting AchE activity (in words): strongly inhibited AchE activity
[3]; compound concentration 0.78 μg/ml
  Residual ratio of AchE activity (%): 84 ± 6%
[3]; compound concentration 1.56 μg/ml
  Residual ratio of AchE activity (%): 66 ± 7%
[3]; compound concentration 3.13 μg/ml
  Residual ratio of AchE activity (%): 42 ± 4 %
[3]; compound concentration 6.25 μg/ml
  Residual ratio of AchE activity (%): 37 ± 10 %
[3]; compound concentration 12.5 μg/ml
  Residual ratio of AchE activity (%): 38 ± 2 %
[3]; compound concentration 25 μg/ml
  Residual ratio of AchE activity (%): 30 ± 8 %
[3]; [7]
  Residual ratio of AchE activity (%): 91 ± 4%
[3]; [8]
  Residual ratio of AchE activity (%): 47 ± 4 %
[3]; [9]
  Residual ratio of AchE activity (%): 41 ± 9 %
[3]; [10]
  Residual ratio of AchE activity (%): 38 ± 7 %
[3]; [11]
  Residual ratio of AchE activity (%): 24 ± 2 %
[3]; [12]
  Residual ratio of AchE activity (%): 25 ± 3 %
[3]; [13]
  Residual ratio of AchE activity (%): 22 ± 2 %
[3]; [14]
  IC50: 1.5 µg/mL
APP Tg mouse [4]; dose 100 μg/kg body weight
  Passive avoidance reaction: 280 ± 20 s
APP Tg mouse [4]; dose 500 μg/kg body weight
  Passive avoidance reaction: 243 ± 25 s
APP Tg mouse [4]; [15]
  passive avoidance test (in words): improved the dementia
PC12-HS cells [5]; NK-4 500 ng/ml
  Survibal percentage of cells when admixed with cytotoxic factor (%) Nutrition starvation: 78 ** %
PC12-HS cells [5]; NK-4 5000 ng/ml
  Survibal percentage of cells when admixed with cytotoxic factor (%) Nutrition starvation: 64 ** %
PC12-HS cells [5]; PC12-HS cells
  concentration required for protection action against nutrition starvation: 500 ng/mL
PC12-HS cells [5]; PC12-HS cells, FBS-free medium, 3 days, NK-4 50 ng/ml, control free of cytotoxic factor = 100
  Survibal percentage of cells when admixed with cytotoxic factor (%) Nutrition starvation: 47%
APP Tg mouse [6]; dose 100 μg/kg body weight
  Index for object discrimination: 0.20 ± 0.06
APP Tg mouse [6]; dose 500 μg/kg body weight
  Index for object discrimination: 0.30 ± 0.05
APP Tg mouse [6]; [15]
  adverse effect: No adverse effect
  object discrimination test (in words): improved the dementia

## CCCCN1C=C/C(=C/C=C(/C=C/c2cc[n+](CCCC)c3ccccc23)c2cc[n+](CCCC)c3ccccc23)c2ccccc21 [NK-26]
[3]; concentration of compound 0.78 μg/ml, read-out: Residual ratio of AchE activity (%)
  remaining activity at 0.78 µg/mL: 94 ± 11%
[3]; concentration of compound 1.56 μg/ml, read-out: Residual ratio of AchE activity (%)
  remaining activity at 1.56 µg/mL: 84 ± 9%
[3]; concentration of compound 3.13 μg/ml, read-out: Residual ratio of AchE activity (%)
  remaining activity at 3.13 µg/mL: 88 ± 8%
[3]; concentration of compound 6.25 μg/ml, read-out: Residual ratio of AchE activity (%)
  remaining activity at 6.25 µg/mL: 88 ± 7%
[3]; concentration of compound 12.5 μg/ml, read-out: Residual ratio of AchE activity (%)
  remaining activity at 12.5 µg/mL: 69 ± 5%
[3]; concentration of compound 25 μg/ml, read-out: Residual ratio of AchE activity (%)
  remaining activity at 25 µg/mL: 48 ± 4%
[3]; concentration of compound 50 μg/ml, read-out: Residual ratio of AchE activity (%)
  remaining activity at 50 µg/mL: 36 ± 9%
[3]; concentration that suppresses AchE activity by 50%, calculated from residual ratios, read-out: IC50 (μg/ml) (converted)
  IC50: 37.6 µM

## CCN1/C(=C/C=C(/C=C/c2sc3ccccc3[n+]2CC)c2sc3ccccc3[n+]2CC)Sc2ccccc21.[I-].[I-] [NK-100]
[3]; AchE solution from PC12-HS cells, read-out: IC50 (concentration of a compound inhibiting the AchE activity of 50%) (converted)
  IC50: 14.6 µM
[3]; [16]
  remaining activity at 0.78 µg/mL: 77 ± 18%
[3]; [17]
  remaining activity at 1.56 µg/mL: 68 ± 16%
[3]; [18]
  remaining activity at 3.13 µg/mL: 67 ± 3%
[3]; [19]
  remaining activity at 6.25 µg/mL: 60 ± 3%
[3]; [20]
  remaining activity at 12.5 µg/mL: 49 ± 5%
[3]; [21]
  remaining activity at 25 µg/mL: 43 ± 3%

## CCCN1C=CC(=CC=C(C=Cc2cc[n+](CCC)c3ccccc23)c2cc[n+](CCC)c3ccccc23)c2ccccc21.[I-].[I-] [NK-234]
[3]
  action of inhibiting AchE activity (in words): strongly inhibited AchE activity
[3]; [7]
  Residual ratio of AchE activity (%): 77 ± 21%
[3]; [8]
  Residual ratio of AchE activity (%): 77 ± 13%
[3]; [9]
  Residual ratio of AchE activity (%): 47 ± 11 %
[3]; [10]
  Residual ratio of AchE activity (%): 45 ± 9 %
[3]; [11]
  Residual ratio of AchE activity (%): 30 ± 12 %
[3]; [12]
  Residual ratio of AchE activity (%): 26 ± 6 %
[3]; [13]
  Residual ratio of AchE activity (%): 12 ± 6 %
[3]; [14]
  IC50: 3.0 µg/mL

## CC[n+]1ccccc1/C=C/c1ccc(N(C)C)cc1 [NK-557]
[3]; [16]
  remaining activity at 0.78 µg/mL: 110 ± 1%
[3]; [17]
  remaining activity at 1.56 µg/mL: 107 ± 2%
[3]; [18]
  remaining activity at 3.13 µg/mL: 97 ± 5%
[3]; [19]
  remaining activity at 6.25 µg/mL: 97 ± 3%
[3]; [20]
  remaining activity at 12.5 µg/mL: 97 ± 4%
[3]; [21]
  remaining activity at 25 µg/mL: 88 ± 9%
